Article PMC9851200, “Multiparameter phenotypic screening for endogenous TFEB and TFE3 translocation identifies novel chemical series modulating lysosome function” (Autophagy, 2022)

Key:
Format in all cases: binding
[1] = target: kinases (KINOMEscan panel) (Homo sapiens, UniProt Q96Q40)
[2] = target: kinases (KINOMEscan panel) (Homo sapiens, UniProt P10721, D816H); conditions: NEW KINOMEscan
[3] = target: kinases (KINOMEscan panel) (Homo sapiens, UniProt Q00536); conditions: kinase CDK16; NEW KINOMEscan
[4] = target: kinases (KINOMEscan panel) (Homo sapiens, UniProt Q16512); conditions: NEW KINOMEscan
[5] = target: kinases (KINOMEscan panel) (Homo sapiens, UniProt Q16816); conditions: PHKG1; NEW KINOMEscan
[6] = target: kinases (KINOMEscan panel) (Homo sapiens, UniProt P14616); conditions: INSRR; NEW KINOMEscan
[7] = target: T1, kinases (KINOMEscan panel) (Homo sapiens, UniProt Q9UBE8); conditions: NLK; NEW KINOMEscan
T1 sequence (Q9UBE8 1-527): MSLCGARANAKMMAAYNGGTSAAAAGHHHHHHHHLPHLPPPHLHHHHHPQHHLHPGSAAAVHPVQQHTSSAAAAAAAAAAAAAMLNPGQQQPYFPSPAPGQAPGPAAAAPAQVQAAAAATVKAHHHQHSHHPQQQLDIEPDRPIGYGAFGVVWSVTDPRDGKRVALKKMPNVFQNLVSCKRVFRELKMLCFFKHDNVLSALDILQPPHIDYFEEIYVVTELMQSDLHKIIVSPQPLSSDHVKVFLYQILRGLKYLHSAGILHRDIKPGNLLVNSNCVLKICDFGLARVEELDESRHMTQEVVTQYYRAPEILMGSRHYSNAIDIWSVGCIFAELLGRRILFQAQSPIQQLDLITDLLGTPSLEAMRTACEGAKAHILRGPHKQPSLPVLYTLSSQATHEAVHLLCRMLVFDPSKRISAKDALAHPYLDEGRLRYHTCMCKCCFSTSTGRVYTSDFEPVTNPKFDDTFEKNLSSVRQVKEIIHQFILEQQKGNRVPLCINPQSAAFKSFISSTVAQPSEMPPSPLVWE

[8] = target: kinases (KINOMEscan panel) (Homo sapiens, UniProt P10721, T670I/V559D); conditions: NEW KINOMEscan
[9] = target: kinases (KINOMEscan panel) (Homo sapiens, UniProt P10721, V559D); conditions: kinase KIT(V559D); NEW KINOMEscan
[10] = target: T2, kinases (KINOMEscan panel) (Homo sapiens, UniProt Q6PHR2); conditions: kinase ULK3; NEW KINOMEscan
T2 sequence (Q6PHR2 1-472): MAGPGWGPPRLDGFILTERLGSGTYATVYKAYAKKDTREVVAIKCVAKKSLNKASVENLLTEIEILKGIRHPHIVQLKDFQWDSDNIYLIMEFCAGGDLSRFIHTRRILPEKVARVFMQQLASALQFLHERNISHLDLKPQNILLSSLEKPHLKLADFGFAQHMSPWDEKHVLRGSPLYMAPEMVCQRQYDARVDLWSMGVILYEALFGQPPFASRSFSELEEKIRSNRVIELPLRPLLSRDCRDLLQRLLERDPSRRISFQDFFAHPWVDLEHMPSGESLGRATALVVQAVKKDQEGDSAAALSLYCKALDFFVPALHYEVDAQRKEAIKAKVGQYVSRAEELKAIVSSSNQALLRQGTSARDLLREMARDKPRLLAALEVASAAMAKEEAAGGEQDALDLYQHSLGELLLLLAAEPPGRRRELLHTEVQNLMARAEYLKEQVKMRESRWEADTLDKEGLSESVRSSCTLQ

[11] = target: kinases (KINOMEscan panel) (Homo sapiens, UniProt P29597); conditions: NEW KINOMEscan; for KINOMEscan TYK2(JH1domain-catalytic): kinase TYK2(JH1domain-catalytic)
[12] = target: kinases (KINOMEscan panel) (Homo sapiens, UniProt P53350); conditions: PLK1; NEW KINOMEscan
[13] = target: kinases (KINOMEscan panel) (Homo sapiens, UniProt P51451); conditions: kinase BLK; NEW KINOMEscan
[14] = target: kinases (KINOMEscan panel) (Homo sapiens, UniProt Q9UBF8); conditions: kinase PI4KB; NEW KINOMEscan
[15] = target: kinases (KINOMEscan panel) (Homo sapiens, UniProt Q9UEW8); conditions: NEW KINOMEscan
[16] = target: kinases (KINOMEscan panel) (Homo sapiens, UniProt Q15303); conditions: kinase ERBB4; NEW KINOMEscan
[17] = target: kinases (KINOMEscan panel) (Homo sapiens, UniProt O75116); conditions: kinase ROCK2; NEW KINOMEscan
[18] = target: kinases (KINOMEscan panel) (Homo sapiens, UniProt P00533, T790M); conditions: kinase EGFR(T790M); NEW KINOMEscan
[19] = target: kinases (KINOMEscan panel) (Homo sapiens, UniProt P16234); conditions: PDGFRA; NEW KINOMEscan
[20] = target: kinases (KINOMEscan panel) (Homo sapiens, UniProt O60331); conditions: PIP5K1C; NEW KINOMEscan
[21] = target: kinases (KINOMEscan panel) (Homo sapiens, UniProt Q9HBH9); conditions: MKNK2; NEW KINOMEscan
[22] = target: kinases (KINOMEscan panel) (Homo sapiens, UniProt Q13554); conditions: kinase CAMK2B; NEW KINOMEscan
[23] = target: kinases (KINOMEscan panel) (Homo sapiens, UniProt P00519, M351T); conditions: kinase ABL1(M351T)-phosphorylated; NEW KINOMEscan

kinases (KINOMEscan panel) (Homo sapiens, UniProt P29597), sequence (P29597 whole entry): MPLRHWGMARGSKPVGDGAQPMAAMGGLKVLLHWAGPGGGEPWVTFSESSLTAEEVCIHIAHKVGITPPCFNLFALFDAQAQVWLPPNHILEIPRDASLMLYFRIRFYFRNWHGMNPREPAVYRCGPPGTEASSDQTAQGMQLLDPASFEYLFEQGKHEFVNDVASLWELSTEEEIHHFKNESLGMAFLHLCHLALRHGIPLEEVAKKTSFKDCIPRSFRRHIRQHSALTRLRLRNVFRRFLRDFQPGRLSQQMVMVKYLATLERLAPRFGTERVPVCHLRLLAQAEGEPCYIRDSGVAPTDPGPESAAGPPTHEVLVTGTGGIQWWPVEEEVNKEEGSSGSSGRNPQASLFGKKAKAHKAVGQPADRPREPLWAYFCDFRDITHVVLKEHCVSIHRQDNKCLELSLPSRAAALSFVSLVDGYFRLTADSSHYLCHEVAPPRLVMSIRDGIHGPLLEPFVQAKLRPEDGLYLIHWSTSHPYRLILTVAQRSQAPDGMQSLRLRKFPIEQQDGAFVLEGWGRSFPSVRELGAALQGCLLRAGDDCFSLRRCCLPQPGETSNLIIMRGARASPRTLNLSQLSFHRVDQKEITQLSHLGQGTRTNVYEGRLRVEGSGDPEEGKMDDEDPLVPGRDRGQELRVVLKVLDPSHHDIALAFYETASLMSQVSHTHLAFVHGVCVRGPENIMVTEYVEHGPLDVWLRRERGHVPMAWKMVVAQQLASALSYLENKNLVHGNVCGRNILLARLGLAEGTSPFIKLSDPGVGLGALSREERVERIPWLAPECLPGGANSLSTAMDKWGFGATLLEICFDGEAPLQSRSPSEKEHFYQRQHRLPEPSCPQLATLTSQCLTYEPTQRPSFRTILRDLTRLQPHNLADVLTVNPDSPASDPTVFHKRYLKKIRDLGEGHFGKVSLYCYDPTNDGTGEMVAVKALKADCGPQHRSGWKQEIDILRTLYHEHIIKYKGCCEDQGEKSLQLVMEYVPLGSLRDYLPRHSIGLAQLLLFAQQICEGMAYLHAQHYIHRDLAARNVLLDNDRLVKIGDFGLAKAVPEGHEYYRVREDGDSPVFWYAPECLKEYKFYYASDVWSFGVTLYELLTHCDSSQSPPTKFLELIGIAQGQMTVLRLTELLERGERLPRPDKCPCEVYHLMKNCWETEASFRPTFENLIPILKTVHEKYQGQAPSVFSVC
kinases (KINOMEscan panel) (Homo sapiens, UniProt P53350), sequence (P53350 whole entry): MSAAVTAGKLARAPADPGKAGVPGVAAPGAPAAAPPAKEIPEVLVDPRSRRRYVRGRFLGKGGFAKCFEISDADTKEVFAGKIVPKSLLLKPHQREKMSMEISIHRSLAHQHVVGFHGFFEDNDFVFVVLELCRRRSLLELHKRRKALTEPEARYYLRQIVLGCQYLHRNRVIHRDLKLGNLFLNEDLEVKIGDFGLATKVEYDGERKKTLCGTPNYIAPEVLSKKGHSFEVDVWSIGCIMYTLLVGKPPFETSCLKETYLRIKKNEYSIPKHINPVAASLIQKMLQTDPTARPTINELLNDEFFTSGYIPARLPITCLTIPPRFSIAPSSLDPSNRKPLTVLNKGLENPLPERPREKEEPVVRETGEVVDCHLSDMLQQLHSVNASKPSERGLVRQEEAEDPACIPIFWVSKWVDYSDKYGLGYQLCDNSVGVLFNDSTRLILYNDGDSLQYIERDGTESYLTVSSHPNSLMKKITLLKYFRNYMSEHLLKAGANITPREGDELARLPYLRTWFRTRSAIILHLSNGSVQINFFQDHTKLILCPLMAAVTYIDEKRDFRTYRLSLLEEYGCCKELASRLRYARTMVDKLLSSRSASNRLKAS
kinases (KINOMEscan panel) (Homo sapiens, UniProt O60331), sequence (O60331 whole entry): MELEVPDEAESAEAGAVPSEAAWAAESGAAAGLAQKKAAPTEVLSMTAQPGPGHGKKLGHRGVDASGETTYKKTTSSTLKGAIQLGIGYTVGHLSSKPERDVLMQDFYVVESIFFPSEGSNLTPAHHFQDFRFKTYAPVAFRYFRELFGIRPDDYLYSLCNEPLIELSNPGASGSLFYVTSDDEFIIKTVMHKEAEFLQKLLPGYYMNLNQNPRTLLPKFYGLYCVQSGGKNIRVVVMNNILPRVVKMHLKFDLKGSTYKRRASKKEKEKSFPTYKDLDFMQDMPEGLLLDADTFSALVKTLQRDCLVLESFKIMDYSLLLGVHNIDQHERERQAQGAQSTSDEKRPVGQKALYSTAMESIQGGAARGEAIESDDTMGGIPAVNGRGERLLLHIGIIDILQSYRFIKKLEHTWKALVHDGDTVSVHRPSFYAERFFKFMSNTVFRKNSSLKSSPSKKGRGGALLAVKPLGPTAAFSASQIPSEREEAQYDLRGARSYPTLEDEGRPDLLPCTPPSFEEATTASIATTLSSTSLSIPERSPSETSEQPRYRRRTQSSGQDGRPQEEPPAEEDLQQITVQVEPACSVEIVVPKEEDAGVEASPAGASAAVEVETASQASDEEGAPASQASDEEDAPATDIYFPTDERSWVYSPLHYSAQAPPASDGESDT
kinases (KINOMEscan panel) (Homo sapiens, UniProt Q13554), sequence (Q13554 whole entry): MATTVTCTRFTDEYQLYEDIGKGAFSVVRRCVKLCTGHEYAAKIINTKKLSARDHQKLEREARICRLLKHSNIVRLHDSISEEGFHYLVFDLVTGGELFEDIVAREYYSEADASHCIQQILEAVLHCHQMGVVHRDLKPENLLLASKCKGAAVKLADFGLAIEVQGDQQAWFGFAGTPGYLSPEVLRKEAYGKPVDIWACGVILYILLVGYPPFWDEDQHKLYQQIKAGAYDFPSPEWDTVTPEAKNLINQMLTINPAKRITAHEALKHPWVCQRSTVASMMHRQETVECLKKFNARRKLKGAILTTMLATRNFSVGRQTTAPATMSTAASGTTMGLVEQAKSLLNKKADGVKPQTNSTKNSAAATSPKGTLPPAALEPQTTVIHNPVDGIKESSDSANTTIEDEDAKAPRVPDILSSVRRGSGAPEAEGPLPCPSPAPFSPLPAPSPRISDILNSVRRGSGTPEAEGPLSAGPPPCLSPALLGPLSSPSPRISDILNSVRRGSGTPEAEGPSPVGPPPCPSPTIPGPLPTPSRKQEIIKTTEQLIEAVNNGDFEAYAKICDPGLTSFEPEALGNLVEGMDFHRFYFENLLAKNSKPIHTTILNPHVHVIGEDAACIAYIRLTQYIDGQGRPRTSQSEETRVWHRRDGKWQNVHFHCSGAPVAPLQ
kinases (KINOMEscan panel) (Homo sapiens, UniProt P10721, V559D), sequence (P10721 26-976 V559D): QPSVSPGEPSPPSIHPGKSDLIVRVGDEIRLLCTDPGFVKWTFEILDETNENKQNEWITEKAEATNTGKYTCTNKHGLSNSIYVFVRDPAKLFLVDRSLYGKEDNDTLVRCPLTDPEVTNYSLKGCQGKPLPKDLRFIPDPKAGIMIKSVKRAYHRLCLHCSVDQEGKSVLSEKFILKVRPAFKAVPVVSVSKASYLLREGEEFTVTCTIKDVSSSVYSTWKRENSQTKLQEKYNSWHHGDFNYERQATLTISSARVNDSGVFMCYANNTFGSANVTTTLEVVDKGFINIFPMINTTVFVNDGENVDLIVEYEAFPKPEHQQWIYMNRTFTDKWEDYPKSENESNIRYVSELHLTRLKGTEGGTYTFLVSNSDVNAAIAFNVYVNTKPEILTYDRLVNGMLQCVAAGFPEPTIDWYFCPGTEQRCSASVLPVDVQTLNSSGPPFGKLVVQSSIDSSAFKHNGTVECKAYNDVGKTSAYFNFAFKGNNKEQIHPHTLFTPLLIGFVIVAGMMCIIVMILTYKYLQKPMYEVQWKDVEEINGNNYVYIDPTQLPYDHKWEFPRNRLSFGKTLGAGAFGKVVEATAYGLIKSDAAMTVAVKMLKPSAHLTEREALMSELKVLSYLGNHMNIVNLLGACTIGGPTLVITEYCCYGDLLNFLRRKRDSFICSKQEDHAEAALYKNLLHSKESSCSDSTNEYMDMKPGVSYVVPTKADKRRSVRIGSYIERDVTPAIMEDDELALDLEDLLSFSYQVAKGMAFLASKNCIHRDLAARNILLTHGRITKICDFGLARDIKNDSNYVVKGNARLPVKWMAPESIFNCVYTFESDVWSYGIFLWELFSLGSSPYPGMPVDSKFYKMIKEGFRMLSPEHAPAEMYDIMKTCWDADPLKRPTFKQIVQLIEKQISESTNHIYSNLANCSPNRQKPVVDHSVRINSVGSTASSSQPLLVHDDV
kinases (KINOMEscan panel) (Homo sapiens, UniProt Q16816), sequence (Q16816 whole entry): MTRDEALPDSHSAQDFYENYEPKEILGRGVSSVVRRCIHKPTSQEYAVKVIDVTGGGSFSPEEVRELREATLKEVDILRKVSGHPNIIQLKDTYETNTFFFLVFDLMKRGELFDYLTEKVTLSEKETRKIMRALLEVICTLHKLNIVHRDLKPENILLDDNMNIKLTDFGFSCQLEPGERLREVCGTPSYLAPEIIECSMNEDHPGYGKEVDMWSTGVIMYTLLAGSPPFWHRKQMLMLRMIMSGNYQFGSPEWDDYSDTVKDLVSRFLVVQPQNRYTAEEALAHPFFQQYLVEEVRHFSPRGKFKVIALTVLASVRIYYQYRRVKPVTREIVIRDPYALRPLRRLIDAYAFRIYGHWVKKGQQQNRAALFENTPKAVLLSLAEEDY
kinases (KINOMEscan panel) (Homo sapiens, UniProt Q9HBH9), sequence (Q9HBH9 whole entry): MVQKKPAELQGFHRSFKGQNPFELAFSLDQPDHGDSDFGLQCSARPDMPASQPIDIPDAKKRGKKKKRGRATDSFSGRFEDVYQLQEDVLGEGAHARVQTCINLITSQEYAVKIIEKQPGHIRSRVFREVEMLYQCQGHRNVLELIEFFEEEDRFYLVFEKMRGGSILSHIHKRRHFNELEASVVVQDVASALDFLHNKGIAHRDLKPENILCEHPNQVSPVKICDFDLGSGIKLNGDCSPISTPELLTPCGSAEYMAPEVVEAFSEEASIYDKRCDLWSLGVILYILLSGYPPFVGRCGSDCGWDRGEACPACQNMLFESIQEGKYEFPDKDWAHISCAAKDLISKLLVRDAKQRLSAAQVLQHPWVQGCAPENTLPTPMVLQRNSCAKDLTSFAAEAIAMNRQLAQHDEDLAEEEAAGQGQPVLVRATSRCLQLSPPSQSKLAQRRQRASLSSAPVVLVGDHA

SMILES	KINOMEscan CDK15/PFTAIRE2 [1]	KINOMEscan KIT(D816H) [2]	KINOMEscan CDK16 [3]	KINOMEscan PKN1 [4]	KINOMEscan PHKG1 [5]	KINOMEscan INSRR [6]	KINOMEscan NLK [7]	KINOMEscan KIT(V559D,T670I) [8]	KINOMEscan KIT(V559D) [9]	KINOMEscan ULK3 [10]	KINOMEscan TYK2(JH2domain-pseudokinase) [11]	KINOMEscan TYK2(JH1domain-catalytic) [11]	KINOMEscan PLK1 [12]	KINOMEscan BLK [13]	KINOMEscan PI4KB [14]	KINOMEscan STK39 [15]	KINOMEscan ERBB4 [16]	KINOMEscan ROCK2 [17]	KINOMEscan EGFR(T790M) [18]	KINOMEscan PDGFRA [19]	also measured
Cc1cccc(-c2nc(Nc3ccc4nn(C)cc4c3)c3ccccc3n2)n1 [NK167]	0	13	0	0	5	0	0	13	15	0	0	0	0	0	0	11	0	0	0	0	KINOMEscan PIP5K1C [20]: 18; KINOMEscan MKNK2 [21]: 0; KINOMEscan CAMK2B [22]: 0; KINOMEscan ABL1(M351T)-phosphorylated [23]: 0
Cc1cccc(-c2nc(N(C)c3ccc4ncsc4c3)c3ccccc3n2)n1 [NK-161]	0	16	0	0	5	0	0	14	7	1	12	0	4	0	0	0	0	0	0	0	KINOMEscan PIP5K1C [20]: 1; KINOMEscan MKNK2 [21]: 0; KINOMEscan CAMK2B [22]: 0; KINOMEscan ABL1(M351T)-phosphorylated [23]: 0
